Experiments:
Assay type in all cases: in vivo
[1] = test system: Kochia (Kochia scoparia); experiment: Test A preemergence; conditions: Bassia scoparia, pre-emergence, 240 h
Summary of the method: (§1)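 Seeds sprayed preemergence with a directed soil spray, or plants at 2 to 10 cm height and one- to two-leaf stage sprayed postemergence, with test chemicals in a non-phytotoxic solvent mixture containing surfactant, in loam soil–sand blend. Injury rated visually against untreated controls after about 10 d in greenhouse, 0 (no effect) to 100 (complete control).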

[2] = test system: pigweed (Amaranthus retroflexus); experiment: Test A preemergence; conditions: Amaranthus retroflexus, pre-emergence, 240 h
[3] = test system: ryegrass, Italian (Italian ryegrass, Lolium multiflorum); experiment: Test A preemergence; conditions: Lolium multiflorum, pre-emergence, 240 h, Preemergence, 125 g ai/ha; 0 to 100 scale (0 no effect, 100 complete control); read-out: Plant response rating, Ryegrass, Italian
Summary of the method: as §1

[4] = test system: giant foxtail (Setaria faberii); experiment: Test A preemergence; conditions: Setaria faberi, pre-emergence, 240 h
Summary of the method: as §1

[5] = test system: ragweed (common ragweed, Ambrosia elatior); experiment: Test A preemergence; conditions: Ambrosia artemisiifolia, pre-emergence, 240 h
Summary of the method: as §1

[6] = test system: Galium (catchweed bedstraw, Galium aparine); experiment: Test A postemergence; conditions: Galium, post-emergence, 240 h, Postemergence
Summary of the method: as §1

[7] = test system: Kochia (Kochia scoparia); experiment: Test A postemergence; conditions: Bassia scoparia, post-emergence, 240 h, Postemergence
Summary of the method: as §1

[8] = test system: pigweed (Amaranthus retroflexus); experiment: Test A postemergence; conditions: Amaranthus retroflexus, post-emergence, 240 h, Postemergence
Summary of the method: as §1

[9] = test system: corn (Zea mays); experiment: Test A postemergence; conditions: Zea mays, post-emergence, 240 h, Postemergence
Summary of the method: as §1

[10] = test system: barnyardgrass (Echinochloa crus-galli); experiment: Test A postemergence; conditions: Echinochloa crus-galli, post-emergence, 240 h, Postemergence
Summary of the method: as §1

[11] = test system: ryegrass, Italian (Italian ryegrass, Lolium multiflorum); experiment: Test A postemergence; conditions: Lolium multiflorum, post-emergence, 240 h, Postemergence
Summary of the method: as §1

[12] = test system: blackgrass (Alopecurus myosuroides); experiment: Test A postemergence; conditions: Alopecurus myosuroides, post-emergence, 240 h, Postemergence
Summary of the method: as §1

[13] = test system: giant foxtail (Setaria faberii); experiment: Test A postemergence; conditions: Setaria faberi, post-emergence, 240 h, Postemergence
Summary of the method: as §1

[14] = test system: wheat (Triticum aestivum); experiment: Test A postemergence; conditions: Triticum aestivum, post-emergence, 240 h, Postemergence
Summary of the method: as §1

[15] = test system: ragweed (common ragweed, Ambrosia elatior); experiment: Test A postemergence; conditions: Ambrosia artemisiifolia, post-emergence, 240 h, Postemergence
Summary of the method: as §1

SMILES: CS(=O)(=O)c1ccccc1NC(=O)[C@H]1C(=O)NC[C@@H]1c1ccc2c(c1)CCO2 [Compound 1320]
- pest or weed control at 500 g/ha ([1]; 500 g ai/ha, preemergence, 0 to 100 scale where 0 is no effect and 100 is complete control, read-out: Kochia plant response rating): 60%
- pest or weed control at 125 g/ha ([1]; Preemergence, 125 g ai/ha, 0 to 100 scale (0 no effect, 100 complete control), read-out: Plant response rating, Kochia): 0%
- pest or weed control at 500 g/ha ([2]; 500 g ai/ha, preemergence, 0 to 100 scale where 0 is no effect and 100 is complete control, read-out: Pigweed plant response rating): 0%
- pest or weed control at 125 g/ha ([2]; Preemergence, 125 g ai/ha, 0 to 100 scale (0 no effect, 100 complete control), read-out: Plant response rating, Pigweed): 0%
- pest or weed control at 125 g/ha [3]: 0%
- pest or weed control at 500 g/ha ([4]; 500 g ai/ha, preemergence, 0 to 100 scale where 0 is no effect and 100 is complete control, read-out: Foxtail, Giant plant response rating): 80%
- pest or weed control at 125 g/ha ([4]; Preemergence, 125 g ai/ha, 0 to 100 scale (0 no effect, 100 complete control), read-out: Plant response rating, Foxtail, Giant): 0%
- pest or weed control at 500 g/ha ([5]; 500 g ai/ha, preemergence, 0 to 100 scale where 0 is no effect and 100 is complete control, read-out: Ragweed plant response rating): 0%
- pest or weed control at 125 g/ha ([5]; Preemergence, 125 g ai/ha, 0 to 100 scale (0 no effect, 100 complete control), read-out: Plant response rating, Ragweed): 0%
- pest or weed control at 125 g/ha ([6]; 125 g ai/ha, visual rating about 10 d after treatment, read-out: Galium plant response rating (0 to 100 scale)): 30%
- pest or weed control at 500 g/ha ([6]; 500 g ai/ha, visual injury, 0 to 100 scale (0 no effect, 100 complete control), approx. 10 d, read-out: Plant response rating, Galium): 40%
- pest or weed control at 125 g/ha ([7]; 125 g ai/ha, visual rating about 10 d after treatment, read-out: Kochia plant response rating (0 to 100 scale)): 0%
- pest or weed control at 500 g/ha ([7]; 500 g ai/ha, visual injury, 0 to 100 scale (0 no effect, 100 complete control), approx. 10 d, read-out: Plant response rating, Kochia): 0%
- pest or weed control at 125 g/ha ([8]; 125 g ai/ha, visual rating about 10 d after treatment, read-out: Pigweed plant response rating (0 to 100 scale)): 0%
- pest or weed control at 500 g/ha ([8]; 500 g ai/ha, visual injury, 0 to 100 scale (0 no effect, 100 complete control), approx. 10 d, read-out: Plant response rating, Pigweed): 0%
- plant injury at 125 g/ha ([9]; 125 g ai/ha, visual rating about 10 d after treatment, read-out: Corn plant response rating (0 to 100 scale)): 0%
- Corn plant response rating (crop injury, 0 = no effect, 100 = complete kill) at 500 g/ha ([9]; 500 g ai/ha, visual injury, 0 to 100 scale (0 no effect, 100 complete control), approx. 10 d): 0%
- pest or weed control at 125 g/ha ([10]; 125 g ai/ha, visual rating about 10 d after treatment, read-out: Barnyardgrass plant response rating (0 to 100 scale, 0 no effect, 100 complete control)): 0%
- pest or weed control at 500 g/ha ([10]; 500 g ai/ha, visual injury, 0 to 100 scale (0 no effect, 100 complete control), approx. 10 d, read-out: Plant response rating, Barnyardgrass): 50%
- pest or weed control at 125 g/ha ([11]; 125 g ai/ha, visual rating about 10 d after treatment, read-out: Ryegrass, Italian plant response rating (0 to 100 scale)): 0%
- pest or weed control at 500 g/ha ([11]; 500 g ai/ha, visual injury, 0 to 100 scale (0 no effect, 100 complete control), approx. 10 d, read-out: Plant response rating, Ryegrass, Italian): 0%
- pest or weed control at 125 g/ha ([12]; 125 g ai/ha, visual rating about 10 d after treatment, read-out: Blackgrass plant response rating (0 to 100 scale)): 0%
- pest or weed control at 500 g/ha ([12]; 500 g ai/ha, visual injury, 0 to 100 scale (0 no effect, 100 complete control), approx. 10 d, read-out: Plant response rating, Blackgrass): 0%
- pest or weed control at 125 g/ha ([13]; 125 g ai/ha, visual rating about 10 d after treatment, read-out: Foxtail, Giant plant response rating (0 to 100 scale)): 0%
- pest or weed control at 500 g/ha ([13]; 500 g ai/ha, visual injury, 0 to 100 scale (0 no effect, 100 complete control), approx. 10 d, read-out: Plant response rating, Foxtail, Giant): 20%
- plant injury at 125 g/ha ([14]; 125 g ai/ha, visual rating about 10 d after treatment, read-out: Wheat plant response rating (0 to 100 scale)): 0%
- plant injury at 500 g/ha ([14]; 500 g ai/ha, visual injury, 0 to 100 scale (0 no effect, 100 complete control), approx. 10 d, read-out: Plant response rating, Wheat): 0%
- pest or weed control at 125 g/ha ([15]; 125 g ai/ha, visual rating about 10 d after treatment, read-out: Ragweed plant response rating (0 to 100 scale)): 0%
- pest or weed control at 500 g/ha ([15]; 500 g ai/ha, visual injury, 0 to 100 scale (0 no effect, 100 complete control), approx. 10 d, read-out: Plant response rating, Ragweed): 0%

Source: patent US12077503B2, “Substituted cyclic amides and their use as herbicides” (FMC CORPORATION, priority 2015, dated 2024)
